According to publication PMC6093650, “Antidepressive and anxiolytic effects of ostruthin, a TREK-1 channel activator” (PLoS ONE, 2018):

Legend:
[1] = system: mice anxiety-like behavior; test: elevated plus maze; type: in vivo
Description: (§1) Male ICR mice (n = 317 in total) aged 5 weeks and weighing 32 ± 2 g were purchased from Shimizu Laboratory Supplies (Kyoto, Japan). For the social defeat stress test, we used 28 C57BL/6J mice (5 weeks old, Shimizu Laboratory Supplies) and 30 ICR mice (7–8 weeks old, Charles River Labs Japan, Yokohama, Kanagawa, Japan). Mice were maintained for at least 1 week prior to experiments. Animals were kept in groups in plastic cages. They had free access to food and water, and were kept in a 12-h light/dark cycle (08:00–20:00). Experiments were carried out between 10:00 and 18:00 in a quiet and air-conditioned experimental room, in which mice were habituated for at least 30 min before each experiment. Animal experiments were performed in accordance with the guidelines of the Physiological Society of Japan and were approved by the Committees on Animal Experiments at Kansai Medical University and the Kurashiki University of Science and the Arts. Ostruthin was initially dissolved in DMSO at higher concentration (100 mM) and then diluted in phosphate-buffered saline (PBS). The diluted solution was mixed vigorously for more than 10 min before the experiments, and an equal volume of DMSO was added to PBS as a control. PBS and ostruthin were administered intraperitoneally 30 min before mice behavioral tests (0.01 ml/g body weight). Each animal was used only once, except for the wheel running test, which was carried out immediately after elevated plus maze.
The elevated plus maze apparatus consisted of four arms set in a cross pattern from a neutral central square (6 × 6 cm). Two opposite arms were delimited by vertical walls (closed arms, 30 × 15 × 6 cm), whereas the other two arms had unprotected edges (open arms, 30 × 6 cm). The maze was elevated 40 cm above the floor. At the beginning of each 5 min test session, a mouse was placed in the central neutral area, facing one of the open arms. The total number of the entries to open arms and time spent in the open arms were measured. After removal of the animal, the apparatus was cleaned and wiped.

[2] = system: general locomotor activity of mice; test: voluntary wheel running test; type: in vivo; conditions: 0, 2, 5, 20 mg/kg i.p., after elevated plus maze, 5 min, n = 7
Description: as §1, with “The diluted solution was mixed vigorously for more than 10 min before the experiments, and an equal volume of DMSO was added to PBS as a control. PBS and ostruthin were administered intraperitoneally 30 min before mice behavioral tests (0.01 ml/g body weight). Each animal was used only once, except for the wheel running test, which was carried out immediately after elevated plus maze.” left out
Immediately after the elevated plus maze test, the same mouse was subjected to the voluntary wheel running test. The number of rotations was measured for 5 min using an activity monitoring running wheel (Muromachi Kikai, Tokyo, Japan).

TREK-1 channel = molecular target: T1, TREK-1 channel (Homo sapiens, UniProt O95069); test: whole-cell patch-clamp of TREK-1 currents in TR-1 cells (293T stably expressing TREK-1); type: cell-based; conditions: TR-1 (293T) cells, 25°C, applied 5 min after whole-cell access, n = 5; read-out: EC50 of activation of whole-cell TREK-1 currents
T1 construct: expressed in transfected cells
T1 sequence (O95069 1-426): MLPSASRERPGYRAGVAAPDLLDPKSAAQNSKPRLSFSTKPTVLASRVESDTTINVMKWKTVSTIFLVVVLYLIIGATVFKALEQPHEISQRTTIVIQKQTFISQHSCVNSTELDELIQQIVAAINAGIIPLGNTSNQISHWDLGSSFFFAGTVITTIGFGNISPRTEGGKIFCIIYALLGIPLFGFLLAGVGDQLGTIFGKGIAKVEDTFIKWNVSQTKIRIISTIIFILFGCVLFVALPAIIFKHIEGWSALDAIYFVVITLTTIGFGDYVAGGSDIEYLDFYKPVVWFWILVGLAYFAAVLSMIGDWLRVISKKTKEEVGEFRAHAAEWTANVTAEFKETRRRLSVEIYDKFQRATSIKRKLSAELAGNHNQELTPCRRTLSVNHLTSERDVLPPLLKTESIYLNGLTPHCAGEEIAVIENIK
Description: For recordings of K^+ channel currents, we prepared stable cell lines for TREK-1, TWIK-related acid-sensitive K^+ channel (TASK-1), strongly inwardly rectifying K^+ channel (Kir2.1), and human ether-a-go-go-related gene (HERG-1) channels and transiently expressed other channels in 293T cells using a calcium-phosphate transfection method. For the establishment of the stable lines, we used lentiviral vectors, and the preparation methods for the lentiviral vectors were described in our previous report. TR-1 cells, which stably expressed TREK-1 channel and were grown on a small cover glass (3 × 18 mm), were placed in a recording chamber with an internal volume of 200 μl. Whole-cell currents were recorded in Tyrode solution using an Axopatch 200B amplifier (Axon Instruments, Foster City, CA) at 25°C. […] Perfusion (100 μl/min) was continued to maintain the water level throughout recordings. pH and osmotic pressure of solutions were measured with a pH meter (Horiba, Kyoto, Japan) and a freezing point osmometer (Knauer, Berlin, Germany), respectively.
We previously prepared a lentiviral vector that expressed the TREK-1 channel and using this vector we established a cell line, TR-1, which stably expressed the channel. […] Immediately after whole-cell access, small outward currents were recorded in response to depolarizing step pulses (Fig 1A, 0 min). […]

CC(C)=CCC/C(C)=C/Cc1cc2ccc(=O)oc2cc1O [ostruthin]
number of entries to the open arm ([1]; 20 mg/kg i.p., vs 5 mg/kg): decreased | time spent on the open arm ([1]; 20 mg/kg i.p., vs 5 mg/kg): decreased | number of entries to the open arm ([1]; 2 and 5 mg/kg i.p. 30 min before test, vs 0 mg/kg): increased | number of entries to the open arm ([1]; amlodipine experiment: single compound vs PBS, ostruthin 5 mg/kg or amlodipine 10 mg/kg, n = 6): increased | number of entries to the open arm ([1]; ostruthin 5 mg/kg co-administered with amlodipine 10 mg/kg, vs amlodipine, n = 6): did not increase | time spent in the open arm ([1]; ostruthin 5 mg/kg in the absence of amlodipine, vs PBS, n = 6): increased | increase of time spent in the open arm ([1]; ostruthin 5 mg/kg in the presence of amlodipine 10 mg/kg, n = 6): did not | number of wheel rotations (voluntary motility) [2]: no effect at any dose | EC50 (TREK-1 channel): 5.3 µM
